Legend:
[1] = system: patients with treatment-resistant major depressive disorder; experiment: Clinical trial of inhaled 5-MeO-DMT in treatment-resistant major depressive disorder: safety and tolerability; type: in vivo, human; details: for Reported adverse events: 12 mg inhaled
Method: (§1) A clinical trial was performed in which 5-MeO-DMT free base (purity not less than 99%) was administered to patients with treatment-resistant major depressive disorder (TRD). The objectives of the study were to assess the safety and tolerability, the dose-related psychedelic effects and the effects on various measures of depression of single-day dosing of 5-MeO-DMT. The trial was reviewed and approved by the relevant national competent authority and local medical ethics committee. Patients recruited into the trial had to meet the Diagnostic and Statistical Manual of Mental Disorders-Fifth Edition (DSM-5) diagnostic criteria for single-episode or recurrent major depressive disorder and had to be treatment-resistant, both aspects as evaluated by a psychiatrist or registered psychologist. Patients who were using any psychoactive medication or substance (such as anti-depressive medication) had to discontinue such medication or substance and had to observe a wash-out period before the 5-MeO-DMT administration. On the administration day, a single dose of 12 mg 5-MeO-DMT was administered to the patients via a single inhalation as described in Example 1A. Patients were closely monitored for 3.5 hours after administration, with additional follow-up visits 1 day and 7 days after dosing. Various safety related measures (e.g., adverse event reporting, safety laboratory analyses, vital signs, electrocardiogram (ECG), Clinician Administered Dissociative States Scale (CADSS), Psychomotor Vigilance Test (PVT), Digit Symbol Substitution Test (DSST)), measures of the intensity of the psychedelic effects (e.g., Peak Psychedelic Experience Questionnaire (PPEQ), Altered States of Consciousness (ASC) Questionnaire, Mystical Experience Questionnaire (MEQ30), subjective description of the psychedelic experience), measures of depression severity (Montgomery-Åsberg Depression Rating Scale (MADRS), Patient's Global Impression of Severity scale (PGI-S), Patient's Global Impression of Improvement scale (PGI-I)), and additional psychological measures (e.g., Columbia-Suicide Severity Rating Scale (C-SSRS), Brief Psychiatric Rating Scale (BPRS)) were recorded at different time points. Psychological support via a psychologist and/or psychiatrist was available to the patients throughout the study, but no specific psychotherapy was applied, and no additional psychoactive medication was provided.
(§2) Two patients with major depressive disorder diagnosed by a psychiatrist according to DSM-5 diagnostic criteria were recruited into the study (Example 2, Table 1). The patients were considered treatment-resistant because they had not shown adequate improvement to at least two adequate courses of pharmacological therapy in the current episode of depression.

[2] = system: patients with treatment-resistant major depressive disorder; experiment: Clinical trial in treatment-resistant major depressive disorder: symptom scales (MADRS, PGI-S, PGI-I, C-SSRS, BPRS); type: in vivo, human; details: for PGI-I: 1, Very much improved, 2, Much improved, to 7, Very much worse; for MADRS suicidal thoughts item: ranges from 0 to 6; for BPRS Unusual thought content / BPRS Somatic concern / BPRS Tension / BPRS Guilt feelings / BPRS Depressive Mood / BPRS Anxiety: scale of 1-7; for PGI-S: 1, Normal, not at all ill to 7, Extremely ill; for MADRS: score 0 to 60; for BPRS (total): 18 symptoms each rated 1-7; for C-SSRS Suicidal Ideation: whether any of the suicidal ideation items were present
Method: as §1, §2

[3] = Patient 1, 2 hours after 12 mg inhaled
[4] = Patient 1, 2 hours after 12 mg inhaled, baseline 1
[5] = Patient 1, 2 hours after 12 mg inhaled, baseline 5
[6] = Patient 1, 1 day after 12 mg inhaled
[7] = Patient 1, 1 day after 12 mg inhaled, baseline 1
[8] = Patient 1, 1 day after 12 mg inhaled, baseline 5
[9] = Patient 1, 7 days after 12 mg inhaled
[10] = Patient 1, 7 days after 12 mg inhaled, baseline 1
[11] = Patient 1, 7 days after 12 mg inhaled, baseline 5
[12] = Patient 2, 2 hours after 12 mg inhaled
[13] = Patient 2, 2 hours after 12 mg inhaled, baseline 5
[14] = Patient 2, 1 day after 12 mg inhaled
[15] = Patient 2, 1 day after 12 mg inhaled, baseline 5
[16] = Patient 2, 7 days after 12 mg inhaled
[17] = Patient 2, 7 days after 12 mg inhaled, baseline 5
[18] = both patients, all assessment time points after 12 mg inhaled
[19] = single dose of 12 mg via inhalation

`COc1ccc2[nH]cc(CCN(C)C)c2c1` [5-MeO-DMT, 5-methoxy-N,N-dimethyltryptamine] was tested, and the “ECG, safety laboratory analyses, CADSS and cognitive tests (PVT, DSST)” value ([1]; ECG at 3 hours, laboratory at 3 hours and 7 days, CADSS at 3 hours, 1 day and 7 days, PVT, DSST at 1 day and 7 days) was “unremarkable”, the Reported adverse events ([1]; Patient 1, Administration day, mild, resolved spontaneously) was “Dizziness” and the Reported adverse events ([1]; Patient 1, Day 1, mild, resolved spontaneously) was “Headache, Flashback”. For the same molecule, the Reported adverse events ([1]; Patient 1, Day 7, mild, resolved spontaneously) was “Headache”, the Reported adverse events ([1]; Patient 2, Administration day) was “None reported” and the Reported adverse events ([1]; Patient 2, Day 1, mild, resolved spontaneously) was “Headache”. The Reported adverse events ([1]; Patient 2, Day 7) was “None reported”, the “changes in vital parameters” value ([1]; shortly after administration of 12 mg, both patients) was “temporary, not clinically relevant increase in heart rate and blood pressure” and the “tolerability of the inhalation procedure” value ([1]; single dose of 12 mg via inhalation, both patients) was “well tolerated with no inhalation-related adverse events”. The “% MADRS change vs. baseline” value [2, 3] was −68%, the PGI-I [2, 3] was 1 and the “MADRS suicidal thoughts item” value [2, 4] was 0. For the same molecule, the “BPRS Unusual thought content” value [2, 4] was 1, the “BPRS Somatic concern” value ([2]; Patient 1, 2 hours after 12 mg inhaled, baseline 3) was 2 and the “BPRS Tension” value ([2]; Patient 1, 2 hours after 12 mg inhaled, baseline 4) was 3. The PGI-S [2, 5] was 1, the “BPRS Guilt feelings” value [2, 5] was 1 and the “BPRS Depressive Mood” value ([2]; Patient 1, 2 hours after 12 mg inhaled, baseline 6) was 2. For the same molecule, the “BPRS Anxiety” value ([2]; Patient 1, 2 hours after 12 mg inhaled, baseline 7) was 2, the MADRS ([2]; Patient 1, 2 hours after 12 mg inhaled, baseline 31) was 10 and the “BPRS (total)” value ([2]; Patient 1, 2 hours after 12 mg inhaled, baseline 42) was 27. For the same molecule, the “C-SSRS Suicidal Ideation” value ([2]; Patient 1, 2 hours after 12 mg inhaled, baseline Yes) was “No”, the “% MADRS change vs. baseline” value [2, 6] was −74% and the PGI-I [2, 6] was 1. For the same molecule, the “MADRS suicidal thoughts item” value [2, 7] was 0, the “BPRS Unusual thought content” value [2, 7] was 1 and the “BPRS Somatic concern” value ([2]; Patient 1, 1 day after 12 mg inhaled, baseline 3) was 1. For the same molecule, the “BPRS Tension” value ([2]; Patient 1, 1 day after 12 mg inhaled, baseline 4) was 1, the PGI-S [2, 8] was 1 and the “BPRS Guilt feelings” value [2, 8] was 1. The “BPRS Depressive Mood” value ([2]; Patient 1, 1 day after 12 mg inhaled, baseline 6) was 1, the “BPRS Anxiety” value ([2]; Patient 1, 1 day after 12 mg inhaled, baseline 7) was 1 and the MADRS ([2]; Patient 1, 1 day after 12 mg inhaled, baseline 31) was 8. For the same molecule, the “BPRS (total)” value ([2]; Patient 1, 1 day after 12 mg inhaled, baseline 42) was 18, the “C-SSRS Suicidal Ideation” value ([2]; Patient 1, 1 day after 12 mg inhaled, baseline Yes) was “No” and the “% MADRS change vs. baseline” value [2, 9] was −90%. For the same molecule, the PGI-I [2, 9] was 1, the “MADRS suicidal thoughts item” value [2, 10] was 0 and the “BPRS Unusual thought content” value [2, 10] was 1. For the same molecule, the “BPRS Somatic concern” value ([2]; Patient 1, 7 days after 12 mg inhaled, baseline 3) was 1, the “BPRS Tension” value ([2]; Patient 1, 7 days after 12 mg inhaled, baseline 4) was 1 and the PGI-S [2, 11] was 1. The “BPRS Guilt feelings” value [2, 11] was 1, the “BPRS Depressive Mood” value ([2]; Patient 1, 7 days after 12 mg inhaled, baseline 6) was 1 and the “BPRS Anxiety” value ([2]; Patient 1, 7 days after 12 mg inhaled, baseline 7) was 1. The MADRS ([2]; Patient 1, 7 days after 12 mg inhaled, baseline 31) was 3, the “BPRS (total)” value ([2]; Patient 1, 7 days after 12 mg inhaled, baseline 42) was 18 and the “C-SSRS Suicidal Ideation” value ([2]; Patient 1, 7 days after 12 mg inhaled, baseline Yes) was “No”. The “% MADRS change vs. baseline” value [2, 12] was −73%, the PGI-I [2, 12] was 2 and the “MADRS suicidal thoughts item” value ([2]; Patient 2, 2 hours after 12 mg inhaled, baseline 1) was 0. The “BPRS Tension” value ([2]; Patient 2, 2 hours after 12 mg inhaled, baseline 3) was 1, the “BPRS Somatic concern” value ([2]; Patient 2, 2 hours after 12 mg inhaled, baseline 4) was 1 and the PGI-S [2, 13] was 1. The “BPRS Anxiety” value [2, 13] was 2, the “BPRS Depressive Mood” value [2, 13] was 3 and the “BPRS Guilt feelings” value [2, 13] was 1. The “BPRS Unusual thought content” value ([2]; Patient 2, 2 hours after 12 mg inhaled, baseline 6) was 1, the MADRS ([2]; Patient 2, 2 hours after 12 mg inhaled, baseline 33) was 9 and the “BPRS (total)” value ([2]; Patient 2, 2 hours after 12 mg inhaled, baseline 45) was 26. For the same molecule, the “C-SSRS Suicidal Ideation” value ([2]; Patient 2, 2 hours after 12 mg inhaled, baseline No) was “No”, the “% MADRS change vs. baseline” value [2, 14] was −85% and the PGI-I [2, 14] was 2. For the same molecule, the “MADRS suicidal thoughts item” value ([2]; Patient 2, 1 day after 12 mg inhaled, baseline 1) was 1, the “BPRS Tension” value ([2]; Patient 2, 1 day after 12 mg inhaled, baseline 3) was 1 and the “BPRS Somatic concern” value ([2]; Patient 2, 1 day after 12 mg inhaled, baseline 4) was 1. For the same molecule, the PGI-S [2, 15] was 1, the “BPRS Anxiety” value [2, 15] was 1 and the “BPRS Depressive Mood” value [2, 15] was 1. For the same molecule, the “BPRS Guilt feelings” value [2, 15] was 1, the “BPRS Unusual thought content” value ([2]; Patient 2, 1 day after 12 mg inhaled, baseline 6) was 1 and the MADRS ([2]; Patient 2, 1 day after 12 mg inhaled, baseline 33) was 5. The “BPRS (total)” value ([2]; Patient 2, 1 day after 12 mg inhaled, baseline 45) was 19, the “C-SSRS Suicidal Ideation” value ([2]; Patient 2, 1 day after 12 mg inhaled, baseline No) was “No” and the “% MADRS change vs. baseline” value [2, 16] was −85%. For the same molecule, the PGI-I [2, 16] was 2, the “MADRS suicidal thoughts item” value ([2]; Patient 2, 7 days after 12 mg inhaled, baseline 1) was 0 and the “BPRS Tension” value ([2]; Patient 2, 7 days after 12 mg inhaled, baseline 3) was 1. For the same molecule, the “BPRS Somatic concern” value ([2]; Patient 2, 7 days after 12 mg inhaled, baseline 4) was 1, the PGI-S [2, 17] was 1 and the “BPRS Anxiety” value [2, 17] was 1. The “BPRS Depressive Mood” value [2, 17] was 1, the “BPRS Guilt feelings” value [2, 17] was 1 and the “BPRS Unusual thought content” value ([2]; Patient 2, 7 days after 12 mg inhaled, baseline 6) was 1. The MADRS ([2]; Patient 2, 7 days after 12 mg inhaled, baseline 33) was 5, the “BPRS (total)” value ([2]; Patient 2, 7 days after 12 mg inhaled, baseline 45) was 18 and the “C-SSRS Suicidal Ideation” value ([2]; Patient 2, 7 days after 12 mg inhaled, baseline No) was “No”. The “standard criteria for MADRS remission (MADRS total score equal or less than 10)” value [2, 18] was “fulfilled”, the “standard criteria for MADRS response (at least 50% improvement from baseline)” value [2, 18] was “fulfilled” and the “time to clinical remission after a single 5-MeO-DMT administration” value [2, 19] was no more than 2 h. For the same molecule, the “time to clinical response after 5-MeO-DMT administration” value [2, 19] was no more than 2 h.

Source: patent publication US20240307350A1, “5-METHOXY-N,N-DIMETHYLTRYPTAMINE (5-MEO-DMT) FOR TREATING DEPRESSION” (GH RESEARCH IRELAND LIMITED, priority 2019, published 2024)
